System: platelets
Test: Platelet quality, apheresis platelets in 100% plasma, 15 μM S-59, INT-100 (~3.6 J/cm^2) or 340 nm LED 1x/2x/3x (~3.6/7.2/10.8 J/cm^2)
Format: cell-based
Excerpt: Additional units were illuminated with the INT-100 device at ˜3.6 J/cm^2 for comparison or maintained as an untreated control. […] As shown in the following Tables 11-19, for platelet quality parameters, results were generally similar among the controls and INT-100 and 340 nm test samples, except for the 3×340 nm dosage for certain parameters.

Q: What does the source list for `Cc1oc2c(C)c3oc(=O)cc(C)c3cc2c1COCCN` [S-59, 3-(2-aminoethoxymethyl)-2,5,9-trimethylfuro[3,2-g]chromen-7-one]?
A: Adenosine triphosphate (ATP) (340 nm (1x), D3): 4.4 mmole/10^8 platelets; Glucose (340 nm (1x), D3): 13.49 mmol/L; LDH (340 nm (1x), D3): 12.1 LDH IU/10^11 platelets; Lactate (340 nm (1x), D3): 15.17 mmol/L; Platelet counts (340 nm (1x), D3): 1391 ×10^3 cells/μL; Platelet lysis (340 nm (1x), D3): 4.90%; pCO2 at 37° C. (340 nm (1x), D3): 54.4 mmHg; pH at 37° C. (340 nm (1x), D3): 6.84; pO2 at 37° C. (340 nm (1x), D3): 11.8 mmHg; Adenosine triphosphate (ATP) (340 nm (1x), D5): 4.0 mmole/10^8 platelets; Glucose (340 nm (1x), D5): 10.27 mmol/L; LDH (340 nm (1x), D5): 12.1 LDH IU/10^11 platelets; Lactate (340 nm (1x), D5): 19.81 mmol/L; Platelet counts (340 nm (1x), D5): 1338 ×10^3 cells/μL; Platelet lysis (340 nm (1x), D5): 4.43%; pCO2 at 37° C. (340 nm (1x), D5): 35.7 mmHg; pH at 37° C. (340 nm (1x), D5): 6.70; pO2 at 37° C. (340 nm (1x), D5): 22.5 mmHg; Adenosine triphosphate (ATP) (340 nm (1x), D7): 3.7 mmole/10^8 platelets; Glucose (340 nm (1x), D7): 8.32 mmol/L; LDH (340 nm (1x), D7): 13.1 LDH IU/10^11 platelets; Lactate (340 nm (1x), D7): 21.83 mmol/L; Platelet counts (340 nm (1x), D7): 1391 ×10^3 cells/μL; Platelet lysis (340 nm (1x), D7): 5.23%; pCO2 at 37° C. (340 nm (1x), D7): 34.3 mmHg; pH at 37° C. (340 nm (1x), D7): 6.58; pO2 at 37° C. (340 nm (1x), D7): 16.6 mmHg; Glucose (340 nm (1x), Post-UVA): 17.45 mmol/L; LDH (340 nm (1x), Post-UVA): 11.3 LDH IU/10^11 platelets; Lactate (340 nm (1x), Post-UVA): 9.05 mmol/L; Platelet counts (340 nm (1x), Post-UVA): 1366 ×10^3 cells/μL; Platelet lysis (340 nm (1x), Post-UVA): 4.48%; pCO2 at 37° C. (340 nm (1x), Post-UVA): 91.9 mmHg; pH at 37° C. (340 nm (1x), Post-UVA): 6.89; pO2 at 37° C. (340 nm (1x), Post-UVA): 14.3 mmHg; Adenosine triphosphate (ATP) (340 nm (1x), Pre-UVA): 4.0 mmole/10^8 platelets; LDH (340 nm (1x), Pre-UVA): 10.5 LDH IU/10^11 platelets; Platelet counts (340 nm (1x), Pre-UVA): 1453 ×10^3 cells/μL; Platelet lysis (340 nm (1x), Pre-UVA): 4.30%; pCO2 at 37° C. (340 nm (1x), Pre-UVA): 89.6 mmHg; pH at 37° C. (340 nm (1x), Pre-UVA): 6.90; pO2 at 37° C. (340 nm (1x), Pre-UVA): 41.8 mmHg; Adenosine triphosphate (ATP) (340 nm (2x), D3): 4.4 mmole/10^8 platelets; Glucose (340 nm (2x), D3): 13.63 mmol/L; LDH (340 nm (2x), D3): 12.1 LDH IU/10^11 platelets; Lactate (340 nm (2x), D3): 14.55 mmol/L; Platelet counts (340 nm (2x), D3): 1317 ×10^3 cells/μL; Platelet lysis (340 nm (2x), D3): 4.59%; pCO2 at 37° C. (340 nm (2x), D3): 54.5 mmHg; pH at 37° C. (340 nm (2x), D3): 6.86; pO2 at 37° C. (340 nm (2x), D3): 14.8 mmHg; Adenosine triphosphate (ATP) (340 nm (2x), D5): 4.1 mmole/10^8 platelets; Glucose (340 nm (2x), D5): 10.69 mmol/L; LDH (340 nm (2x), D5): 13.0 LDH IU/10^11 platelets; Lactate (340 nm (2x), D5): 19.06 mmol/L; Platelet counts (340 nm (2x), D5): 1370 ×10^3 cells/μL; Platelet lysis (340 nm (2x), D5): 4.92%; pCO2 at 37° C. (340 nm (2x), D5): 37.5 mmHg; pH at 37° C. (340 nm (2x), D5): 6.72; pO2 at 37° C. (340 nm (2x), D5): 15.3 mmHg; Adenosine triphosphate (ATP) (340 nm (2x), D7): 3.7 mmole/10^8 platelets; Glucose (340 nm (2x), D7): 8.34 mmol/L; LDH (340 nm (2x), D7): 13.2 LDH IU/10^11 platelets; Lactate (340 nm (2x), D7): 22.13 mmol/L; Platelet counts (340 nm (2x), D7): 1376 ×10^3 cells/μL; Platelet lysis (340 nm (2x), D7): 5.19%; pCO2 at 37° C. (340 nm (2x), D7): 36.4 mmHg; pH at 37° C. (340 nm (2x), D7): 6.56; pO2 at 37° C. (340 nm (2x), D7): 14.1 mmHg; Glucose (340 nm (2x), Post-UVA): 16.98 mmol/L; LDH (340 nm (2x), Post-UVA): 12.1 LDH IU/10^11 platelets; Lactate (340 nm (2x), Post-UVA): 8.77 mmol/L; Platelet counts (340 nm (2x), Post-UVA): 1301 ×10^3 cells/μL; Platelet lysis (340 nm (2x), Post-UVA): 4.50%; pCO2 at 37° C. (340 nm (2x), Post-UVA): 94.1 mmHg; pH at 37° C. (340 nm (2x), Post-UVA): 6.89; pO2 at 37° C. (340 nm (2x), Post-UVA): 14.2 mmHg; Adenosine triphosphate (ATP) (340 nm (2x), Pre-UVA): 3.9 mmole/10^8 platelets; LDH (340 nm (2x), Pre-UVA): 10.5 LDH IU/10^11 platelets; Platelet counts (340 nm (2x), Pre-UVA): 1448 ×10^3 cells/μL; Platelet lysis (340 nm (2x), Pre-UVA): 4.30%; pCO2 at 37° C. (340 nm (2x), Pre-UVA): 88.5 mmHg; pH at 37° C. (340 nm (2x), Pre-UVA): 6.90; pO2 at 37° C. (340 nm (2x), Pre-UVA): 45.9 mmHg; Adenosine triphosphate (ATP) (340 nm (3x), D3): 3.8 mmole/10^8 platelets; Glucose (340 nm (3x), D3): 10.87 mmol/L; LDH (340 nm (3x), D3): 11.6 LDH IU/10^11 platelets; Lactate (340 nm (3x), D3): 20.42 mmol/L; Platelet counts (340 nm (3x), D3): 1372 ×10^3 cells/μL; Platelet lysis (340 nm (3x), D3): 4.78%; pCO2 at 37° C. (340 nm (3x), D3): 62.5 mmHg; pH at 37° C. (340 nm (3x), D3): 6.56; pO2 at 37° C. (340 nm (3x), D3): 27.7 mmHg; Adenosine triphosphate (ATP) (340 nm (3x), D5): 0.4 mmole/10^8 platelets; Glucose (340 nm (3x), D5): 1.33 mmol/L; LDH (340 nm (3x), D5): 16.0 LDH IU/10^11 platelets; Lactate (340 nm (3x), D5): 36.09 mmol/L; Platelet counts (340 nm (3x), D5): 1550 ×10^3 cells/μL; Platelet lysis (340 nm (3x), D5): 6.62%; pCO2 at 37° C. (340 nm (3x), D5): 13.9 mmHg; pH at 37° C. (340 nm (3x), D5): 5.57; pO2 at 37° C. (340 nm (3x), D5): 159.5 mmHg; Adenosine triphosphate (ATP) (340 nm (3x), D7): −0.1 mmole/10^8 platelets; Glucose (340 nm (3x), D7): 0.43 mmol/L; LDH (340 nm (3x), D7): 33.7 LDH IU/10^11 platelets; Lactate (340 nm (3x), D7): 36.36 mmol/L; Platelet counts (340 nm (3x), D7): 1474 ×10^3 cells/μL; Platelet lysis (340 nm (3x), D7): 16.6%; pCO2 at 37° C. (340 nm (3x), D7): 4.4 mmHg; pH at 37° C. (340 nm (3x), D7): 5.49; pO2 at 37° C. (340 nm (3x), D7): 178.6 mmHg; Glucose (340 nm (3x), Post-UVA): 16.77 mmol/L; LDH (340 nm (3x), Post-UVA): 12.1 LDH IU/10^11 platelets; Lactate (340 nm (3x), Post-UVA): 9.48 mmol/L; Platelet counts (340 nm (3x), Post-UVA): 1322 ×10^3 cells/μL; Platelet lysis (340 nm (3x), Post-UVA): 4.77%; pCO2 at 37° C. (340 nm (3x), Post-UVA): 98.1 mmHg; pH at 37° C. (340 nm (3x), Post-UVA): 6.87; pO2 at 37° C. (340 nm (3x), Post-UVA): 19.7 mmHg; Adenosine triphosphate (ATP) (340 nm (3x), Pre-UVA): 3.6 mmole/10^8 platelets; LDH (340 nm (3x), Pre-UVA): 10.5 LDH IU/10^11 platelets; Platelet counts (340 nm (3x), Pre-UVA): 1452 ×10^3 cells/μL; Platelet lysis (340 nm (3x), Pre-UVA): 4.30%; pCO2 at 37° C. (340 nm (3x), Pre-UVA): 98.2 mmHg; pH at 37° C. (340 nm (3x), Pre-UVA): 6.87; pO2 at 37° C. (340 nm (3x), Pre-UVA): 90.9 mmHg; Adenosine triphosphate (ATP) (INT-100, D3): 4.3 mmole/10^8 platelets; Glucose (INT-100, D3): 13.11 mmol/L; LDH (INT-100, D3): 11.9 LDH IU/10^11 platelets; Lactate (INT-100, D3): 14.71 mmol/L; Platelet counts (INT-100, D3): 1395 ×10^3 cells/μL; Platelet lysis (INT-100, D3): 4.69%; pCO2 at 37° C. (INT-100, D3): 55.8 mmHg; pH at 37° C. (INT-100, D3): 6.82; pO2 at 37° C. (INT-100, D3): 18.9 mmHg; Adenosine triphosphate (ATP) (INT-100, D5): 4.0 mmole/10^8 platelets; Glucose (INT-100, D5): 10.26 mmol/L; LDH (INT-100, D5): 11.6 LDH IU/10^11 platelets; Lactate (INT-100, D5): 20.18 mmol/L; Platelet counts (INT-100, D5): 1400 ×10^3 cells/μL; Platelet lysis (INT-100, D5): 4.50%; pCO2 at 37° C. (INT-100, D5): 36.4 mmHg; pH at 37° C. (INT-100, D5): 6.67; pO2 at 37° C. (INT-100, D5): 20.1 mmHg; Adenosine triphosphate (ATP) (INT-100, D7): 3.5 mmole/10^8 platelets; Glucose (INT-100, D7): 8.19 mmol/L; LDH (INT-100, D7): 12.6 LDH IU/10^11 platelets; Lactate (INT-100, D7): 23.31 mmol/L; Platelet counts (INT-100, D7): 1439 ×10^3 cells/μL; Platelet lysis (INT-100, D7): 5.18%; pCO2 at 37° C. (INT-100, D7): 35.0 mmHg; pH at 37° C. (INT-100, D7): 6.54; pO2 at 37° C. (INT-100, D7): 19.7 mmHg; Glucose (INT-100, Post-UVA): 17.24 mmol/L; LDH (INT-100, Post-UVA): 11.5 LDH IU/10^11 platelets; Lactate (INT-100, Post-UVA): 8.85 mmol/L; Platelet counts (INT-100, Post-UVA): 1415 ×10^3 cells/μL; Platelet lysis (INT-100, Post-UVA): 4.74%; pCO2 at 37° C. (INT-100, Post-UVA): 91.4 mmHg; pH at 37° C. (INT-100, Post-UVA): 6.89; pO2 at 37° C. (INT-100, Post-UVA): 36.4 mmHg; Adenosine triphosphate (ATP) (INT-100, Pre-UVA): 3.9 mmole/10^8 platelets; LDH (INT-100, Pre-UVA): 10.3 LDH IU/10^11 platelets; Platelet counts (INT-100, Pre-UVA): 1481 ×10^3 cells/μL; Platelet lysis (INT-100, Pre-UVA): 4.30%; pCO2 at 37° C. (INT-100, Pre-UVA): 101.1 mmHg; pH at 37° C. (INT-100, Pre-UVA): 6.87; pO2 at 37° C. (INT-100, Pre-UVA): 98.4 mmHg

From patent publication US12214092B2, “Systems and methods for treating biological fluids” (Cerus Corporation, priority 2017, dated 2025)
